One assay deals with PDAC in KPC mice. Description: Long-term treatment of KPC mice, gemcitabine with or without iRGD. Format: in vivo, mouse. The method, then:
One hundred micrograms of FAM-labeled peptide dissolved in 100 μl of PBS was intravenously injected into tumor mice, and allowed to circulate for 15, 30, or 60 min. The mice were perfused through the heart under deep anesthesia using PBS containing 1% BSA, and tissues were harvested, fixed with 4% PFA overnight, washed three times with PBS, and then transferred to 30% sucrose prior to embedding in optimal cutting temperature compound (OCT). In some cases, the FAM signal was enhanced with an anti-fluorescein antibody (1:200) (Cat no. A-889, Invitrogen) followed by a secondary anti-rabbit Alexa 488 antibody (1:200) (Invitrogen). Other antibodies used for immunofluorescence were anti-FAP (1:100) (Cat. no. ABT-11, Millipore Sigma, Temecula, CA), Cy3-anti-αSMA (1:100) (Clone 1A4, Cat. no. C6198, Millipore Sigma), anti-ER-TR7 (1:100) (Cat. no. SC-73355, Santa Cruz Biotechnology, Dallas, TX), rabbit anti-mouse β5 integrin (1:200) (Cat. no. 15459, GeneTex, Irvine, CA), rabbit monoclonal anti-Ki67 (1:200) (Clone SP6, Cat. no. ab16667, Abcam), mouse monoclonal anti-αSMA (0.034 μg/ml) (Clone 1A4, Cat. no. ab7817, Abcam), and rat anti-mouse CD31(1:100) (Clone MEC 13.3, Cat. no. 550274, BD Biosciences) antibodies. The sections were also stained with 4′,6-diamidino-2-phenylindole (DAPI) (1:1000) (Invitrogen). The stained tissue sections were examined with a Zeiss confocal microscope (Zeiss, Dublin, CA). To quantify FAM-iRGD homing (green) and its colocalization with CAFs (red), confocal micrographs were converted to RGB color mode and analyzed with an ImageJ software for the intensity and areas positive for one or both colors. Six to eight random fields per tumor were chosen and repeated in three tumor mice for each time point. For intraductal spreading of FAM-iRGD, cancerous ducts with or without FAM-iRGD signal were manually counted per field of view in confocal micrographs. Six random fields were chosen for each of the three tumors at both time points.
Immunohistochemistry was performed as described previously. Briefly, paraffin-embedded sections were cleared, rehydrated, and subjected to steam heat-mediated antigen retrieval using low or high pH buffer (eBioscience). Endogenous peroxidase activity was blocked with BloxALL (Vector, Burlingame, CA). Blocking was performed with 10% donkey or goat serum plus 5% BSA. The sections were treated with a rabbit anti-αvβ5 polyclonal antibody (1:200) (Cat. no. bs-1356R, BIOSS, Woburn, MA) or a rabbit polyclonal anti-cleaved caspase 3 antibody (1:250) (Cat. no. 9579S, Cell Signaling) at 4 °C overnight and incubated with ImmPRESS (IHC-P, rabbit, MP-7401) secondary antibody reagent (Vector, Burlingame, CA). The sections were counter stained with hematoxylin and eosin (H&E) and viewed with a Nikon Eclipse E-600 bright field microscope.
KPC mice with PDAC of ~4–5 mm confirmed by palpation and ultrasound imaging were randomized into respective treatment cohorts: iRGD alone (100 μg/IV injection, n = 10); gemcitabine (TSZ Chem, Waltham, MA) (100 mg/kg/IP injection, n = 18); iRGD + gemcitabine (n = 16). The treatment was given every 4 days until the mice met the criteria for sacrifice defined by the IACUC. Survival curves were drawn and analyzed using GraphPad (Prism8) software. In another study, the KPC mice were randomized into gemcitabine (100 mg/kg/IP injection) + nab-paclitaxel composed of mouse albumin (30 mg/kg/IP injection) or iRGD (100 μg/IV injection) + gemcitabine + nab-paclitaxel. […]

Another assay deals with KPC mouse tumors. Put plainly: Modified Miles assay, Evans Blue with iRGD co-injection. It is filed as in vivo. The following applies: IV 100 μl 1% Evans blue then 100 μg iRGD or PBS, 40 min, OD 600 nm, Fig S14. The protocol: The experiments were performed as described earlier[20],[38]. In brief, for Miles assays, anesthetized mice were warmed to 37 °C for 10 min, followed by an IV bolus of 100 μl of 1% Evans blue dye and then 100 μg of iRGD. After 40 min, the mice under deep anesthesia were perfused through the heart with PBS containing 1% BSA and the organs were harvested for dye extraction using […]. OD 600 nm of the supernatant was measured. For dextran delivery, mice were intravenously injected with 0.3 mg of iRGD followed by 0.3 mg of 10 kDa Alexa 647-conjugated fixable dextran (Invitrogen). After 1 h of circulation, mice were perfused with PBS containing 1% BSA and the organs were harvested and processed for immunofluorescence.

For assay [1], the system named is mPCFAA0779 CAFs and LM-PmC cells. Put plainly: Peptide entry in 2D co-cultures (confocal microscopy). The following applies: 2D co-culture, 20 μM peptide, 4 h, 37 °C. It is filed as cell-based, mouse. The method, then:
A mixture of tumor cells and CAFs at a 2:1 ratio was grown on collagen I-coated coverslips (BD Biosciences) overnight or until they became confluent. The cells were incubated with 20 μM of FAM-labeled peptides for 4 h at 37 °C. The cells were briefly rinsed with warm PBS, fixed in warm 4% paraformaldehyde, and stained with DAPI (1:1000). The cells were visualized with a Fluoview 500 confocal microscope (Olympus America, Center Valley, PA).

For assay [2], the system named is αvβ5 integrin expression in PC3 cells. Put plainly: Cell surface αvβ5 integrin expression in PC3 cells with TGF-β or LY2157299. It is filed as cell-based, human. The following applies: for avb5 MFI: Fig 4E. The protocol: (§1) Spheroids were generated by incubating 5 × 10^4 cells per well in 24-well low binding plates for 3 days. For co-culture studies, spheroids prepared with a mixture of 5 × 10^4 CAFs and 10^4 tumor cells per well were used. In some cases, spheroids were maintained in CM for 2 days in the presence or absence of 10 μM dimethyl sulfoxide (DMSO) or a specific TGF-β inhibitor LY2157299 (PeproTech, Princeton, NJ). The CM was prepared from the supernatant of 3-day-old cultures of CAFs or tumor cells, which was centrifuged at 2000×g for 40 min to remove cellular debris. Some spheroids were incubated in the presence of 30 ng/ml human TGF-β (eBioscience, San Diego, CA) for 48 h.
(§2) Cells were trypsinized into a single cell suspension before staining. The primary antibodies were mouse anti-human αvβ3 (1 μg/sample) (Clone LM609 Cat no. MAB1976, EMD Millipore, Billerica, MA), mouse anti-human αvβ5 (1 μg) (Clone P1F6, Cat no. MAB1961 EMD Millipore), rat anti-mouse αv (1 μg) (Clone RMV7, Cat no. 50-104-13, eBioscience), rabbit anti-human NRP-1 b1b2[20] (1 μg), and Alexa 647 or BV421-conjugated mouse anti-human/mouse αvβ5 (1:50) (clone ALULA Cat no. 565836 or 743669, BD Biosciences, San Jose, CA). The primary antibodies were detected with corresponding secondary antibodies conjugated with Alexa 488, 594, or 647 (1:250) (Invitrogen). The cells were analyzed with an LSR Fortessa System (BD Biosciences), and the data were analyzed with a FlowJo software. Cells were gated on single cells and then on live cells by excluding DAPI or PI positive cells. In tumor cell/CAF co-culture experiments, mCherry high cells were gated in order to define the mCherry-labeled CAFs. For iRGD-AgNP uptake quantification, specific uptake was defined by gating cells positive for either Alexa 647 or 488, which were attached to the AgNPs.
(§3) Spheroids were dissociated into a single cell suspension as described in the previous section. The cells were subjected to flow cytometry to analyze the protein expression of αvβ3 and αvβ5 integrins and NRP-1. The flow cytometry was performed as described in a previous section. Some cells were also subjected to qPCR to analyze mRNA expression of αv (ITGav) and ITGb5 integrin subunits, TGF-β, and ZEB1. Total RNA was extracted using Trizol Reagent (Invitrogen), and cDNA was generated using a SuperScript III First-strand Synthesis System (Invitrogen). qPCR was performed using SYBR green in an ABI 7900 HT (Applied Biosystems, Foster City, CA). The results were normalized against β-actin and cyclophilin A. The list of primers can be found in Supplementary Table 1.

Assay [3] concerns NRP-1 expression in PC3 cells. Description: Cell surface NRP-1 expression in PC3 cells with TGF-β or LY2157299. The following applies: Fig 4F. Format: cell-based, human. The method, then: as §1, §2, §3

For `Nc1ccn([C@@H]2O[C@H](CO)[C@@H](O)C2(F)F)c(=O)n1` [Gem, gemcitabine], in the assay with PDAC in KPC mice (KPC mice, necropsy of random samples, not significant), the “liver metastases (median)” value worked out at 26. For the same molecule, in the assay on PDAC in KPC mice (KPC mice, necropsy of random samples, p = 0.03), the “lung metastases (median)” value amounted to 9. Also, the “survival at 180 days” value in the assay with PDAC in KPC mice (KPC mice, treatment every 4 days) was 0%. In addition, in the assay on PDAC in KPC mice (KPC mice, treatment every 4 days, n = 16 combination, n = 18 gemcitabine), the median survival stood at 71 days.
Consider `Cc1cc(-c2ccc(/N=N/c3ccc4c(S(=O)(=O)O)cc(S(=O)(=O)O)c(N)c4c3O)c(C)c2)ccc1/N=N/c1ccc2c(S(=O)(=O)O)cc(S(=O)(=O)O)c(N)c2c1O` [PBS + EB, Evans Blue], for which the results for the “Evans Blue in KPC mouse tumors normalized against wet tissue weight” value with KPC mouse tumors (Exp 1), in the assay with KPC mouse tumors (Exp 2) and with KPC mouse tumors (Exp 3) were 0.004 µg/mL/mg, 0.07 µg/mL/mg and -0.074 µg/mL/mg, respectively.
As for “CRGEKGPDC [FAM-iRGE, variant peptide (…) with the RGD motif changed to RGE, FAM-labeled]”, in assay [1], the “entry of FAM-labeled peptide into cells” value is given as “minimal affinity to the cells”.
Consider “CRGDK/RGPD/EC [iRGD, iRGD tumor-penetrating peptide (CRGDK/RGPD/EC)]”, for which the “therapeutic benefit vs historical survival of untreated KPC mice” value in the assay on PDAC in KPC mice (iRGD alone 100 μg IV every 4 days, n = 10, Fig S15) is “did not provide any therapeutic benefit”.
In the case of FAM-CRGDC, the “entry of FAM-labeled peptide into cells” value in assay [1] is reported as “to a much lesser extent than FAM-iRGD”.
For the molecule TGF-β, the “avb5 MFI” value in assay [2] (PC3, NM+TGFb+DMSO, Exp1) is recorded as 7502; in assay [2] (PC3, NM+TGFb+DMSO, Exp2), 9515; in assay [2] (PC3, NM+TGFb+DMSO, Exp3), 6238; in assay [2] (PC3, NM+TGFb+DMSO, Exp4), 5783. For the same molecule, the “effect of exogenous TGF-β on αvβ5 expression” value in assay [2] (cultured PC3 cells, 30 ng/ml, 48 h) is recorded as “reproduced the CAF CM-induced increase in αvβ5 expression”. The “NRP1 MFI” value turned out to be 12904 in assay [3] (PC3, NM+TGFb+DMSO, Exp1); 3924 in assay [3] (PC3, NM+TGFb+DMSO, Exp2); 4995 in assay [3] (PC3, NM+TGFb+DMSO, Exp3).
On to `Cc1cccc(-c2nn3c(c2-c2ccnc4ccc(C(N)=O)cc24)CCC3)n1` [LY2157299], for which the “effect on CAF CM-induced αvβ5 expression in PC3 cells” value in assay [2] (10 μM, 2 days in CM) is given as “completely blocked”. Also, the “avb5 MFI” value in assay [2] (PC3, CAFCM+LY, Exp1) came out at 4907; in assay [2] (PC3, CAFCM+LY, Exp2) it was 3245; in assay [2] (PC3, CAFCM+LY, Exp3), 2633; in assay [2] (PC3, CAFCM+LY, Exp4) it was 2959; in assay [2] (PC3, NM+TGFb+LY, Exp1) it was 4584; in assay [2] (PC3, NM+TGFb+LY, Exp2), 3278. Further, the “avb5 MFI” value in assay [2] (PC3, NM+TGFb+LY, Exp3) was found to be 2186; in assay [2] (PC3, NM+TGFb+LY, Exp4) it was 2450. Further, the “NRP1 MFI” value in assay [3] (PC3, CAFCM+LY, Exp1) was 4550; in assay [3] (PC3, CAFCM+LY, Exp2), 2287; in assay [3] (PC3, CAFCM+LY, Exp3), 2840; in assay [3] (PC3, NM+TGFb+LY, Exp1) it was 11021; in assay [3] (PC3, NM+TGFb+LY, Exp2), 3760; in assay [3] (PC3, NM+TGFb+LY, Exp3) it was 6318.

The values are drawn from publication PMC7943581, “Tumor-penetrating therapy for β5 integrin-rich pancreas cancer” (Nature Communications, 2021).
